Test results taken from the NIST ThermoML archive (doi:10.1016/j.jct.2007.11.011).

Assay: xn = mol fraction of the nth substance listed
Details: Liquid

CCOS(=O)(=O)[O-].CCn1cc[n+](C)c1 [1-ethyl-3-methylimidazolium ethyl sulfate] + CO
mass density [kg/m3]
Details | 100 kPa | 2500 kPa | 5000 kPa | 10000 kPa | 15000 kPa | 20000 kPa | 25000 kPa | 30000 kPa | 35000 kPa
283.15 K, x1 = 0.04781 | 895.14 | 896.98 | 898.83 | 902.39 | 905.85 | 909.18 | 912.41 | 915.51 | 918.59
283.15 K, x1 = 0.1026 | 968.87 | 970.47 | 972.09 | 975.24 | 978.32 | 981.31 | 984.2 | 987.02 | 989.77
283.15 K, x1 = 0.1977 | 1052.5 | 1053.84 | 1055.23 | 1057.94 | 1060.59 | 1063.21 | 1065.75 | 1068.22 | 1070.64
283.15 K, x1 = 0.2432 | 1081.02 | 1082.31 | 1083.64 | 1086.24 | 1088.8 | 1091.31 | 1093.76 | 1096.15 | 1098.5
283.15 K, x1 = 0.3026 | 1111.91 | 1113.14 | 1114.41 | 1116.86 | 1119.26 | 1121.66 | 1123.99 | 1126.28 | 1128.48
283.15 K, x1 = 0.3887 | 1145.18 | 1146.33 | 1147.51 | 1149.84 | 1152.14 | 1154.4 | 1156.62 | 1158.82 | 1160.95
283.15 K, x1 = 0.485 | 1173.12 | 1174.24 | 1175.35 | 1177.57 | 1179.75 | 1181.92 | 1184.04 | 1186.14 | 1188.17
283.15 K, x1 = 0.589 | 1195.65 | 1196.74 | 1197.79 | 1199.93 | 1202.04 | 1204.13 | 1206.18 | 1208.21 | 1210.17
283.15 K, x1 = 0.7289 | 1218.63 | 1219.71 | 1220.74 | 1222.79 | 1224.82 | 1226.84 | 1228.82 | 1230.77 | 1232.67
283.15 K, x1 = 0.8521 | 1233.5 | 1234.47 | 1235.48 | 1237.48 | 1239.47 | 1241.45 | 1243.37 | 1245.28 | 1247.16
283.15 K, x1 = 0.9397 | 1242.49 | 1243.52 | 1244.49 | 1246.47 | 1248.43 | 1250.39 | 1252.3 | 1254.18 | 1256.03
293.15 K, x1 = 0.04781 | 886.34 | 888.27 | 890.2 | 893.93 | 897.52 | 900.98 | 904.34 | – | –
293.15 K, x1 = 0.1026 | 960.49 | 962.13 | 963.82 | 967.09 | 970.28 | 973.36 | 976.36 | – | –
293.15 K, x1 = 0.1977 | 1044.52 | 1045.92 | 1047.38 | 1050.18 | 1052.91 | 1055.6 | 1058.22 | – | –
293.15 K, x1 = 0.2432 | 1073.23 | 1074.55 | 1075.93 | 1078.61 | 1081.24 | 1083.82 | 1086.34 | – | –
293.15 K, x1 = 0.3026 | 1104.25 | 1105.51 | 1106.81 | 1109.35 | 1111.82 | 1114.27 | 1116.67 | – | –
293.15 K, x1 = 0.3887 | 1137.8 | 1138.99 | 1140.22 | 1142.61 | 1144.95 | 1147.27 | 1149.55 | – | –
293.15 K, x1 = 0.485 | 1165.78 | 1166.91 | 1168.06 | 1170.35 | 1172.59 | 1174.79 | 1176.97 | – | –
293.15 K, x1 = 0.589 | 1188.53 | 1189.55 | 1190.65 | 1192.84 | 1194.99 | 1197.11 | 1199.2 | – | –
293.15 K, x1 = 0.7289 | 1211.6 | 1212.63 | 1213.69 | 1215.79 | 1217.88 | 1219.92 | – | – | –
293.15 K, x1 = 0.8521 | 1226.42 | 1227.39 | 1228.45 | 1230.49 | 1232.52 | 1234.53 | – | – | –
293.15 K, x1 = 0.9397 | 1235.42 | 1236.43 | 1237.46 | 1239.51 | 1241.5 | 1243.48 | – | – | –
